Molecular target: T1, recombinant human 17β-HSD1 (Homo sapiens, UniProt P14061)
T1 construct: made in house; host or cells: Sf9 insect cells (baculovirus, Bac to Bac Expression System); microsomal fraction used
T1 sequence (P14061 1-328): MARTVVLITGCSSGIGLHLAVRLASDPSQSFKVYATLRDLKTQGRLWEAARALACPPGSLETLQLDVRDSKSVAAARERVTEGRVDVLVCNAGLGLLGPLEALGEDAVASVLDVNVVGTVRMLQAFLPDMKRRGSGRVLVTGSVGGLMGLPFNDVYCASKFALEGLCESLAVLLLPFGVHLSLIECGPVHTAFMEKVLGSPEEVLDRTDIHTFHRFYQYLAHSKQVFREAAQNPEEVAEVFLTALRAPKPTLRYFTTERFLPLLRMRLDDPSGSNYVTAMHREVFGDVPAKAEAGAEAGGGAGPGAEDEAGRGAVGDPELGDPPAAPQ
Experiment: Inhibition of recombinant human 17β-HSD1 (HPLC assay, conversion of 3H-estrone to estradiol)
Format: biochemical
Details: 0.5 h, 30 nM 3H-estrone, 1 mM NADPH, 30 min RT, read-out: inhibition of rec. 17 β-HSD1; for inhibition at 0.1 µM: 100 nM inhibitor; for inhibition at 1 µM: 1 μM inhibitor
Method: 17β-HSD1 purification: Recombinant baculovirus was generated by the “Bac to Bac Expression System” (Invitrogen). Recombinant bacmid was transfected to Sf9 insect cells using “Cellfectin Reagent” (Invitrogen). 60 h later cells were harvested; the microsomal fraction was isolated as described by Puranen et al. (1994). Aliquots were stored frozen until determination of enzymatic activity. Assay—Inhibition of recombinant human 17β-HSD1: Recombinant protein (0.1 μg/ml) was incubated in 20 mM KH2PO4 pH 7.4 with 30 nM 3H-estrone and 1 mM NADPH for 30 min at RT, in the presence of potential inhibitors at concentrations of 1 μM or 0.1 μM. Inhibitor stock solutions were prepared in DMSO. Final concentration of DMSO was adjusted to 1% in all samples. The enzyme reaction was stopped by addition of 10% trichloroacetic acid (final concentration). Samples were centrifuged in a microtiter plate at 4000 rpm for 10 min. Supernatants were applied to reverse phase HPLC on a Waters Symmetry C18 column, equipped with a Waters Sentry Guard column. Isocratic HPLC runs were performed at RT at a flow rate of 1 ml/min of acetonitrile:water 48:52 as running solvent. Radioactivity was monitored in the eluate by a Packard Flow Scintillation Analyzer. Total radioactivity for estrone and estradiol were determined in each sample and percent conversion of estrone to estradiol was calculated according to the following formula: [formula] • Percent inhibition was calculated as follows: % inhibition=100−% conversion The values “% inhibition” were determined for exemplified compounds, and the results are summarized in table 4 (for 17β-HSD1).

| Structure (SMILES) | inhibition at 0.1 µM [%] | inhibition at 1 µM [%] |
| --- | --- | --- |
| C[C@]12CC[C@@H]3c4ccc(O)cc4CC[C@H]3[C@@H]1[C@H](CCn1cc(-c3cc(F)cc(F)c3)nn1)CC2=O [Compound 5, 3-Hydroxy-15β-{2-[4-(3,5-Difluoro-phenyl)-[1,2,3]triazol-1-yl]-ethyl}-estra-1,3,5(10)-trien-17-one] | 87 | 95 |
| C[C@]12CC[C@@H]3c4ccc(O)cc4CC[C@H]3[C@@H]1[C@@H](CCCn1cc(CCc3ccccc3)nn1)CC2=O [Compound 16, 3-Hydroxy-15α-[3-(4-phenethyl-[1,2,3]triazol-1-yl)-propyl]-estra-1,3,5(10)-trien-17-one] | 38 | 89 |
| COc1ccc(-c2cn(CCC[C@H]3CC(=O)[C@@]4(C)CC[C@@H]5c6ccc(O)cc6CC[C@H]5[C@H]34)nn2)cc1 [Compound 20, 3-Hydroxy-15α-{3-[4-(4-methoxy-phenyl)-[1,2,3]triazol-1-yl]-propyl}-estra-1,3,5(10)-trien-17-one] | 51 | 87 |
| Cc1ccc(-c2cn(CCC[C@H]3CC(=O)[C@@]4(C)CC[C@@H]5c6ccc(O)cc6CC[C@H]5[C@H]34)nn2)cc1 [Compound 25, 3-Hydroxy-15α-[3-(4-p-tolyl-[1,2,3]triazol-1-yl)-propyl]-estra-1,3,5(10)-trien-17-one] | 49 | 85 |
| C[C@]12CC[C@@H]3c4ccc(O)cc4CC[C@H]3[C@@H]1[C@H](CCCCn1cc(CCc3ccccc3)nn1)CC2=O [Compound 33] | 20 | 80 |
| COc1ccc2c(c1)CC[C@H]1[C@@H]3[C@H](CCCn4cc(-c5ccccc5[N+](=O)[O-])nn4)CC(=O)[C@@]3(C)CC[C@H]21 [Compound 37] | 25 | 80 |
| COc1ccc2c(c1)CC[C@H]1[C@@H]3[C@H](CCCn4cc(C5CC5)nn4)CC(=O)[C@@]3(C)CC[C@H]21 [Compound 41] | 23 | 77 |
| CC(C)CCc1cn(CCCC[C@@H]2CC(=O)[C@@]3(C)CC[C@@H]4c5ccc(O)cc5CC[C@H]4[C@H]23)nn1 [Compound 48] | 21 | 73 |
| CC(C)Cc1cn(CCCCCC[C@@H]2CC(=O)[C@@]3(C)CC[C@@H]4c5ccc(O)cc5CC[C@H]4[C@H]23)nn1 [Compound 58] | 20 | 70 |
| COc1ccc2c(c1)CC[C@H]1[C@@H]3[C@H](CCCn4cc(-c5ccsc5)nn4)CC(=O)[C@@]3(C)CC[C@H]21 [Compound 59] | 18 | 69 |
| COc1ccc2c(c1)CC[C@H]1[C@@H]3[C@H](CCCn4cc(-c5ccc(CO)cc5)nn4)CC(=O)[C@@]3(C)CC[C@H]21 [Compound 60] | 19 | 69 |
| CC(C)CCc1cn(CCCCCC[C@@H]2CC(=O)[C@@]3(C)CC[C@@H]4c5ccc(O)cc5CC[C@H]4[C@H]23)nn1 [Compound 69] | 30 | 64 |
| C[C@]12CC[C@@H]3c4ccc(O)cc4CC[C@H]3[C@@H]1[C@H](CCCCCCn1cc(-c3cccc(O)c3)nn1)CC2=O [Compound 100] | 7 | 48 |
| COc1ccc2c(c1)CC[C@H]1[C@@H]3[C@H](CCCCn4cc(C5CC5)nn4)CC(=O)[C@@]3(C)CC[C@H]21 [Compound 111] | 4 | 43 |
| COc1ccc2c(c1)CC[C@H]1[C@@H]3[C@H](CCCCn4cc(-c5ccc(C)cc5)nn4)CC(=O)[C@@]3(C)CC[C@H]21 [Compound 112] | 12 | 43 |
| COc1ccc2c(c1)CC[C@H]1[C@@H]3[C@H](CCCCn4cc(CO)nn4)CC(=O)[C@@]3(C)CC[C@H]21 [Compound 122] | 5 | 38 |

From US8080540B2, “Therapeutically active triazoles and their use” (Abbott Products GmbH, priority 2006, dated 2011)
